Data: patent publication US9549911B2, “Ginger metabolites and uses thereof” (North Carolina A&T State University, priority 2012, dated 2017)

Columns and labels:
[1] = system: human colon cancer cells HCT-116; assay: MTT growth inhibition by M14 and M15 (Part 3); type: cell-based; conditions: Homo sapiens; HCT-116, 24 hours, 0 to 80 μM; read-out: IC50 (cell viability, MTT)
Experimental: (§1) Cell growth inhibition was determined by a MTT colorimetric assay. […] The reading reflected the number of viable cells and was expressed as a percentage of viable cells in the control. Both HCT-116 and H-1299 cells were cultured in McCoy's 5A medium. All of the above media were supplemented with 10% fetal bovine serum, 1% penicillin/streptomycin, and 1% glutamine, and the cells were kept in a 37° C. incubator with 95% humidity and 5% CO2.

[2] = system: human lung cancer cells H-1299; assay: MTT growth inhibition by M14 and M15 (Part 3); type: cell-based; conditions: Homo sapiens, NCI-H1299; H-1299, 24 hours, 0 to 80 μM; read-out: IC50 (cell viability, MTT)
Experimental: as §1

[3] = system: human colon cancer cells HCT-116; assay: Cell Death Detection ELISA apoptosis induction (Part 3); type: cell-based; conditions: 24 hours
Experimental: (§2) Human colon cancer cells HCT-116 and human lung cancer cells H-1299 were plated in 96-well plates at a density of 5000 cells/well and allowed to attach overnight at 37° C. M14, M15, or [6]-shogaol in DMSO, or DMSO control, diluted in media, were added to cells and incubated for an additional 24 hours at 37° C. After 24 hours, media containing compound was removed and cells were lysed in their respective wells with reagents from a Cell Death Detection ELISA^PLUS kit from Roche Applied Science (Mannheim, Germany). Samples were harvested after cell lysates were spun down at 300 g for 10 minutes. To streptavidin coated microplates, 20 μL samples were added, and mixed with 80 μL Immunoreagent, which consisted of anti-histone-biotin, and anti-DNA-POD, and incubated with gentle shaking for 2 hours at room temperature. After incubation, Immunoreagent was removed and samples were washed 3 times with 250 μL incubation buffer. Substrate solution, ABTS, was added to each well and color was developed for 15 minutes before stopping the reaction with ABTS stop solution and reading absorbance on a microplate reader at 430 nm. Experiments were performed in triplicate and the average is given in comparison to DMSO control with standard deviation.

[4] = system: human lung cancer cells H-1299; assay: as above; type: cell-based; conditions: 24 hours
Experimental: as §2

[5] = system: A549 lung cancer cells; conditions: 6S 30 mg/kg, M2 30 mg/kg, M14 10 mg/kg, oral gavage 5×/week, 7 weeks
Experimental: Nu/J nude mice were obtained from Jackson Laboratories (Bar Harbor, Me.). Animals were randomized into 4 groups. A549 cells (5×10^6 cells) were implanted in both flanks of 8-weeks old Nu/J mice. One week after implantation, animals were given 100 μl of the following treatments through oral gavage 5 times/week: DMSO 0.25 ml/kg (control; n=4); 6S 10 mg/kg (n=4); 6S 30 mg/kg (n=4) or M2 30 mg/kg (n=5). Compounds were diluted in a solution of 5% DMSO in corn oil. Animal body weight and tumor volume were recorded for the duration of the experiment. Tumor volume was calculated by measuring the length and width of the tumors using a digital caliper and using the formula (Length×Width^2)/2. One hour before sacrifice, mice were given one last treatment dose as well as one intra-peritoneal injection of BrdU (7.5 mg/kg in 100 μl PBS). After 7 weeks, tumor tissues were harvested and weighed. A portion of the tumors was snap frozen in liquid nitrogen and another portion was placed in a histology cassette and immersed in formalin solution.
[…] tissues were sent to Precision Histology Lab (Oklahoma City, Okla.) for embedding in paraffin blocks. Then paraffin blocks were processed into 3-4 μm sections that were then put on microscope slides. Sections were then deparaffinized by using a succession of 3 baths of xylene (5 minutes each), 2 baths of absolute ethanol (5 minutes each), 95% ethanol for 3 minutes, 70% ethanol for 3 minutes, and rinsed in PBS. Immunostaining with TUNEL (terminal deoxynucleotidyl transferase dUTP nick end labeling) and BrdU staining kits was performed following manufacturer's recommendation. For staining quantification, sequential high-power field pictures of tumors were taken (10 pictures per tumor) using an A1 Zeiss microscope (Oberkochen, Germany). Images were processed using the Image J software, which was used to count positive, brown-colored cells in each field. Average number per tumor was calculated by averaging the number obtained for each field, and the average number of positive cells per group was obtained by averaging the values of each tumor belonging to the experimental group.
8 week-old nude mice (Jackson Laboratory, Maine) were randomized into 5 groups based on treatment (DMSO: n=4; 6S 10 mg/kg: n=4 (“6S 10”); 6S 30 mg/kg: n=4 (“6S 30”); M2 30 mg/kg: n=5 (“M2 30”); M14 10 mg/kg: n=4 (“M14 10”)). Animals were implanted with 5×10^6 A549 lung cancer cells (adenocarcinomic human alveolar basal epithelial cells) on each flank. The mice had access to food and water ad libitum. One week post implantation, the animals started receiving their respecting treatments through oral gavage (100 μl in corn oil and 5% DMSO), 5×/week. After 7 weeks of treatment, the tumor tissues were harvested.

[6] = system: human colon cancer cells HCT-116; assay: MTT growth inhibition of human cancer and normal cells (Part 2); type: cell-based; conditions: Homo sapiens; HCT-116, 48 h, 0 to 80 μM
Experimental: (§3) Growth inhibition of human cancer and normal cells. Cell growth inhibition was determined by a MTT colorimetric assay. Human colon cancer cells HCT-116, human lung cancer cells H-1299, human colon fibroblast cells CCD-18Co, and human lung fibroblast cells IMR-90 were plated in 96-well microtiter plates with 3000 cells/well and allowed to attach for 24 h at 37° C. […] After the cells were cultured for 48 h, the medium was aspirated and cells were treated with 200 μL fresh medium containing 2.41 mmol/L MTT. […] The reading reflected the number of viable cells and was expressed as a percentage of viable cells in the control. Both HCT-116 and H-1299 cells were cultured in McCoy's 5A medium. CCD-18Co and IMR-90 cells were cultured in Eagle's modified essential medium (EMEM). All of the above media were supplemented with 10% fetal bovine serum, 1% penicillin/streptomycin, and 1% glutamine, and the cells were kept in a 37° C. incubator with 95% humidity and 5% CO2.

[7] = system: human lung cancer cells H-1299; assay: as above; type: cell-based; conditions: Homo sapiens, NCI-H1299; H-1299, 48 h, 0 to 80 μM
Experimental: as §3

[8] = in vitro; type: cell-based, human; conditions: human
Experimental: as §3

[9] = in vitro; type: cell-based, human; conditions: human; remark: listed apart in the source
Experimental: as §3

[10] = system: H-1299 cells; assay: TUNEL apoptosis assay (Part 2); type: cell-based, human; conditions: H-1299, 20 or 40 μM, 24 hours
Experimental: (§4) HCT-116 and H1299 cells were seeded in 6-well plates at 1×10^5 cells/well and incubated at 37° C. in 5% CO2 incubator. After 24 hours, fresh media supplemented with DMSO (control), [6]-shogaol, M2, M6, or M13 metabolites (20 μM or 40 μM) were added to the wells. After 6 or 24 hours incubation at 37° C. in 5% CO2 incubator, cells were washed and pre-treated for 15 min at room temperature with a solution of 20 μg/ml proteinase K. Cells were then washed twice with phosphate buffer saline pH 7.4 (PBS) and fixed for 10 min at room temperature using 10% neutral formaldehyde solution. After 2 washes in ddH2O, cells were resuspended in 100 μL ddH2O and applied on silanized microscope slides. Slides were incubated overnight at 37° C., and washed twice with PBS. TUNEL assay was then carried out according to the manufacturer's protocol. Cells were observed under 400× power using a Zeiss microscope A1 (Thornwood, N.Y.). 10 fields per slide were evaluated, and TUNEL+ cells (with brown coloration in the nucleus) were expressed as a percentage of the total number of cells contained in a field.

[11] = system: HCT-116 cells; assay: TUNEL apoptosis assay (Part 2); type: cell-based, human; conditions: HCT-116, 20 or 40 μM, 24 hours
Experimental: as §4

[12] = Kinetic study of [6]-shogaol metabolism to M6 in liver microsomes; conditions: human
Experimental: To estimate kinetic parameters of metabolism of [6]-shogoal to major product M6 in liver microsomes from human and other species, the incubation conditions were optimized to ensure that formation rate of M6 was in the linear range in relation to incubation time and protein concentration. [6]-Shogaol (7.81, 15.63, 31.25, 62.5, 125, 250, 500, 1000, and 2000 μM) was incubated with liver microsomes from mouse (MLM), rat (RLM), dog (DLM), monkey (CyLM), and human (HLM) (0.1 mg/mL each, respectively) for 30 minutes. All incubations were performed in triplicate. The apparent Km and Vmax values were calculated from analysis of experimental data according to the Michaelis-Menten equation, and the results were graphically represented (for HLM) by an Eadie-Hofstee plot. Kinetic constants were reported as the value+/−S.E. of the parameter estimate.

[13] = as above; type: in vitro ADME, monkey; conditions: cynomolgus, monkey
Experimental: (§5) All incubations were performed in triplicate.

[14] = as above; type: in vitro ADME; conditions: dog liver microsomes 0.1 mg/mL, 30 min
Experimental: as §5

[15] = as above; type: in vitro ADME, rat; conditions: rat
Experimental: as §5

[16] = as above; type: in vitro ADME, mouse; conditions: mouse
Experimental: as §5

[17] = system: human colon cancer cells HCT-116; assay: MTT toxicity in colon cancer and normal colon cells (Part 5); type: cell-based; conditions: HCT-116, 24 hours
Experimental: as §1, with “Cell viability” for “Cell growth inhibition”, “by an” for “by a”, “control. CCD-18Co cells were grown in EMEM.” for “control.”, “and HT-29” for “and H-1299”

[18] = system: human colon cancer cells HT-29; assay: as above; type: cell-based; conditions: HT-29 (p53 mutant), 24 hours
Experimental: as §1, with “Cell viability” for “Cell growth inhibition”, “by an” for “by a”, “control. CCD-18Co cells were grown in EMEM.” for “control.”, “and HT-29” for “and H-1299”

[19] = system: human colon fibroblast cells CCD-18Co; assay: as above; type: cell-based; conditions: normal colon cells CCD-18Co, 24 hours
Experimental: as §1, with “Cell viability” for “Cell growth inhibition”, “by an” for “by a”, “control. CCD-18Co cells were grown in EMEM.” for “control.”, “and HT-29” for “and H-1299”

[20] = system: HCT-116 cells; assay: Western blot analysis of apoptosis markers and p53 (Part 5); type: cell-based, human; conditions: HCT-116 (p53 wild-type), 24 hours; M2, 6S 10, 20 or 40 μM; 8S, M2′, 10S, M2″ 20 μM
Experimental: (§6) Cell lysates were prepared in ice-cold RIPA lysis buffer [25 mM Tris-HCl (pH 7.6), 150 mM NaCl, 1% NP-40, 1% sodium deoxycholate, 0.1% SDS, Thermo Fisher Scientific] supplemented with a protease inhibitor cocktail (AEBSF, aprotinin, bestatin, E-64, leupeptin and pepstatin A in DMSO with EDTA, Thermo Fisher Scientific). Protein content was measured by a Pierce BCA Assay Kit (Thermo Fisher Scientific). Protein contents of cell lysates (30 μg protein/lane) were resolved by SDS-PAGE. Proteins were then electro-transferred onto PVDF membranes and blots were blocked for one hour at room temperature in 1×TBS with 1% Casein (Bio-Rad Laboratories, Berkeley, Calif.). Blots were then incubated overnight at 4° C. with the desired primary antibody diluted in TBS with 0.5% Tween-20. Blots were then washed with TBS-Tween 20 and probed for 1 hour with the appropriate secondary antibody (1:1000). Protein bands were visualized with chemiluminescence using West Femto maximum detection substrate (Thermo Fisher Scientific). To confirm equal protein loading in each lane, immunoblots were stripped and re-probed for β-actin. Protein fold-induction was calculated by normalizing the intensity of the band of interest to β-actin first, and then to DMSO control lanes.

[21] = system: HT-29 cells; assay: as above; type: cell-based, human; conditions: HT-29 (p53 mutant), 24 hours; M2, 6S 10, 20 or 40 μM; 8S, M2′, 10S, M2″ 20 μM
Experimental: as §6

| SMILES | IC50 [1] | IC50 [2] | induction of apoptosis compared to DMSO control ([3]; HCT-116, 10 μM) | induction of apoptosis compared to DMSO control ([4]; H-1299, 10 μM) | IC50 [17] | IC50 [18] | IC50 [19] | p53 expression (Western blot) [20] | p53 expression (Western blot) [21] | other results |
| --- | --- | --- | --- | --- | --- | --- | --- | --- | --- | --- |
| CCCCC/C=C/C(=O)/C=C/c1ccc(O)c(OC)c1 [M14, (1E, 4E)-1-(4′-hydroxy-3′-methoxyphenyl)-deca-1,4-dien-3-one] | 3.22 µM | 3.04 µM | about 6 fold | 7-8 fold | – | – | – | – | – | induction of apoptosis compared to DMSO control ([3]; HCT-116, 1 μM): 2 fold; induction of apoptosis compared to DMSO control ([4]; H-1299, 1 μM): 1 fold; tumor size versus control group [5]: Reduction in tumor size |
| CCCCCC=CC(O)CCc1ccc(O)c(OC)c1 (centres unmarked) [M6, 1-(4′-hydroxy-3′-methoxyphenyl)-4-decen-3-ol] | – | – | – | – | – | – | – | – | – | IC50 [6]: 68.8 µM; IC50 [7]: 61.3 µM; IC50 at 48 h [8]: > 100 µM; IC50 at 48 h [9]: > 100 µM; induction of apoptosis (TUNEL) versus DMSO [10]: did not display any apoptotic effect; induction of apoptosis (TUNEL) versus DMSO [11]: did not display any apoptotic effect; Vmax of M6 formation [12]: 10.82 +/− 0.47 nanomoles per minute per milligram liver microsomes; Vmax of M6 formation [13]: 2.99 +/− 0.28 nanomoles per minute per milligram liver microsomes; Vmax of M6 formation [14]: 7.33 +/− 0.43 nanomoles per minute per milligram liver microsomes; Vmax of M6 formation [15]: 8.19 +/− 0.48 nanomoles per minute per milligram liver microsomes; Vmax of M6 formation [16]: 4.10 +/− 0.19 nanomoles per minute per milligram liver microsomes |
| CCCCCCCCC/C=C/C(=O)CCc1ccc(O)c(OC)c1 [10S, [10]-shogaol, reference compound] | – | – | – | – | 25.1 µM | 23.9 µM | 136 µM | increase in p53 accumulation | increase in p53 accumulation | – |
| CCCCCCC/C=C/C(=O)CCc1ccc(O)c(OC)c1 [8S, [8]-shogaol, reference compound] | – | – | – | – | 22.8 µM | 27.9 µM | 105 µM | increase in p53 accumulation | increase in p53 accumulation | – |
| CCCCCCCC(=O)/C=C/c1ccc(O)c(OC)c1 [M15, (E)-1-(4′-hydroxy-3′-methoxyphenyl)-dec-1-en-3-one] | 43 µM | 41.6 µM | 1 fold | ~2 fold | – | – | – | – | – | – |
